The values below come from ChEMBL document CHEMBL1136643, “Identification of a novel series of selective 5-HT7 receptor antagonists” (Bioorg Med Chem Lett, 2003).

Molecules are shown by their SMILES. pIC50, pKi: −log10 of the molar value.

The target in experiment [1] is 5-hydroxytryptamine receptor 2A (Homo sapiens, UniProt P28223). Nature of the experiment: Binding affinity at human cloned 5-hydroxytryptamine 2A receptor.
For experiment [2], the target named is 5-hydroxytryptamine receptor 7 (Homo sapiens, UniProt P34969). In words: Binding affinity at human cloned 5-hydroxytryptamine 7 receptor.
5-hydroxytryptamine receptor 7, sequence (P34969 whole entry): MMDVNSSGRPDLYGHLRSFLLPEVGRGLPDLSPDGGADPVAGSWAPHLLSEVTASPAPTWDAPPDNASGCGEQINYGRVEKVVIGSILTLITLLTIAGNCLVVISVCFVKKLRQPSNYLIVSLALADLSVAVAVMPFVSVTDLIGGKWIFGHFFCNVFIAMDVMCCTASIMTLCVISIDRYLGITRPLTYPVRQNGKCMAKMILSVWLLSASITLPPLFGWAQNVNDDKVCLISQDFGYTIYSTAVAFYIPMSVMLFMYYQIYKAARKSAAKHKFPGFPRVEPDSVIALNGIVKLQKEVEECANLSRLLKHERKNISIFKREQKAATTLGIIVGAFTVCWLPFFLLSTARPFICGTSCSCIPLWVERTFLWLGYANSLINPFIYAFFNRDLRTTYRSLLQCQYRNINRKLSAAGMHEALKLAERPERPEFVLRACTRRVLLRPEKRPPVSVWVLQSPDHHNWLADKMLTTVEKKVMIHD
The target of a further experiment is T1, D(4) dopamine receptor (Homo sapiens, UniProt P21917).
T1 sequence (P21917 whole entry): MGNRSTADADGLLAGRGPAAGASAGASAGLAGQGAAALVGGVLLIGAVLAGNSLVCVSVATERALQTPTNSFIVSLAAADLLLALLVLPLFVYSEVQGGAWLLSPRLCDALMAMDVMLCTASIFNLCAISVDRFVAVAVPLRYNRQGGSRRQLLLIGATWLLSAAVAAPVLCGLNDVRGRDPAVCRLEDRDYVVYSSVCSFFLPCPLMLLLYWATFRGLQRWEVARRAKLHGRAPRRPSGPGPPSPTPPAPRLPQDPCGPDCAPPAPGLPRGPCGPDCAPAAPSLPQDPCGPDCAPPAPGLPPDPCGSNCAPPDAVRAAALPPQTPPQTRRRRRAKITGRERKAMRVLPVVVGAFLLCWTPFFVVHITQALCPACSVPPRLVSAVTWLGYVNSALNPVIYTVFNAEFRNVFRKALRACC
In words: Binding affinity towards cloned human dopamine D4 receptor was determined.

Experiment [3] concerns the target T2, 5-hydroxytryptamine receptor 1A (Homo sapiens, UniProt P08908).
T2 sequence (P08908 whole entry): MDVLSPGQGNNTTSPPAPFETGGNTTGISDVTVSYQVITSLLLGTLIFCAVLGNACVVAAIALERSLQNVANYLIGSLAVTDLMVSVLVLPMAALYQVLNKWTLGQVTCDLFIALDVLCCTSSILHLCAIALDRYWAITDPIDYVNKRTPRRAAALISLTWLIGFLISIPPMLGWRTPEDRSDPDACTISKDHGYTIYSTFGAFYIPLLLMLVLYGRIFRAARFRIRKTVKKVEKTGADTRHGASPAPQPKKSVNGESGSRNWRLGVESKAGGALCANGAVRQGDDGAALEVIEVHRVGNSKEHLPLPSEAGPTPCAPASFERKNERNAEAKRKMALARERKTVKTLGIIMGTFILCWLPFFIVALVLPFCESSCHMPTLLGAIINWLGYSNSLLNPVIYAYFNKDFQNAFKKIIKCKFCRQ
Nature of the experiment: Binding affinity towards 5-hydroxytryptamine 1A receptor in human using [3H]8-OH-DPAT as radioligand.

The target in the next experiment is Cytochrome P450 2D6 (Homo sapiens, UniProt P10635). In words: Inhibition of human Cytochrome P450 2D6. Type of experiment: ADME.
Experiment [4] deals with 5-hydroxytryptamine receptor 5A (Homo sapiens, UniProt P47898). Nature of the experiment: Binding affinity towards cloned human 5-HT5A receptor was determined.
5-hydroxytryptamine receptor 5A, sequence (P47898 whole entry): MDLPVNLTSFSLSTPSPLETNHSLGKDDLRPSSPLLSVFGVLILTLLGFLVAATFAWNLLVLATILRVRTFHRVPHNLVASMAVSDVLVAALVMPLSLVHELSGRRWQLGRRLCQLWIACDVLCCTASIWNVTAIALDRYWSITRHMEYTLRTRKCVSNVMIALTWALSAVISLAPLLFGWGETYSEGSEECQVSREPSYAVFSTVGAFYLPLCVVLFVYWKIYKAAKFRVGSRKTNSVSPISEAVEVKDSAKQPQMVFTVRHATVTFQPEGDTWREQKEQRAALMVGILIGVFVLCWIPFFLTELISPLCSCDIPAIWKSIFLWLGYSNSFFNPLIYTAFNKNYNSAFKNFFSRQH
Experiment [5] addresses 5-hydroxytryptamine receptor 1D (Homo sapiens, UniProt P28221). In words: Binding affinity towards cloned human 5-hydroxytryptamine 1D receptor.
The target of another experiment is D(3) dopamine receptor (Homo sapiens, UniProt P35462). In words: Binding affinity towards cloned human dopamine D3 receptor was determined.
D(3) dopamine receptor, sequence (P35462 whole entry): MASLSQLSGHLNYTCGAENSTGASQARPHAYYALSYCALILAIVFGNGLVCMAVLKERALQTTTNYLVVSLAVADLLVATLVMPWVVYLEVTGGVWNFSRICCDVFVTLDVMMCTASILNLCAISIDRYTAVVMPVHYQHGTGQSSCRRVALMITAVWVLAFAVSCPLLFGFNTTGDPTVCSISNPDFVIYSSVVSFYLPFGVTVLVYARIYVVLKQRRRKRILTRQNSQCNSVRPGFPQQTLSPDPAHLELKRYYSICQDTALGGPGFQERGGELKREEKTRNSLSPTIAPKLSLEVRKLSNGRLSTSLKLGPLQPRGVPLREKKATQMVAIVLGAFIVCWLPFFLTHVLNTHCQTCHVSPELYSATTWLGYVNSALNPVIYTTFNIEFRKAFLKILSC
The target of experiment [6] is 5-hydroxytryptamine receptor 6 (Homo sapiens, UniProt P50406). In words: Binding affinity towards human 5-hydroxytryptamine 6 receptor.
5-hydroxytryptamine receptor 6, sequence (P50406 whole entry): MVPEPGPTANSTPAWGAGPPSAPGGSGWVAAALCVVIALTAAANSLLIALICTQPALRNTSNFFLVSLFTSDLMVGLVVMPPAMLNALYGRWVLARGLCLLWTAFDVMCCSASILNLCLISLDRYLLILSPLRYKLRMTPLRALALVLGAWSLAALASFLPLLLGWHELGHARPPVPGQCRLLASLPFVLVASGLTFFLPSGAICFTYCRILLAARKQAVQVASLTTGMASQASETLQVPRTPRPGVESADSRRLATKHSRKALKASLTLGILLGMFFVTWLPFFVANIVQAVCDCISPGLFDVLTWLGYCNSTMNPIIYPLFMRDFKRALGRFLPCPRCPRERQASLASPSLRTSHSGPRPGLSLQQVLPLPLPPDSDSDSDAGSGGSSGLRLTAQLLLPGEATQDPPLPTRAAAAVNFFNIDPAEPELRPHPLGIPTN
Experiment [7] has as its target 5-hydroxytryptamine receptor 2B (Homo sapiens, UniProt P41595). Nature of the experiment: Binding affinity towards cloned human 5-hydroxytryptamine 2B receptor was determined.
The target of experiment [8] is 5-hydroxytryptamine receptor 1B (Homo sapiens, UniProt P28222). Nature of the experiment: Binding affinity towards cloned human 5-hydroxytryptamine 1B receptor was determined.
5-hydroxytryptamine receptor 1B, sequence (P28222 whole entry): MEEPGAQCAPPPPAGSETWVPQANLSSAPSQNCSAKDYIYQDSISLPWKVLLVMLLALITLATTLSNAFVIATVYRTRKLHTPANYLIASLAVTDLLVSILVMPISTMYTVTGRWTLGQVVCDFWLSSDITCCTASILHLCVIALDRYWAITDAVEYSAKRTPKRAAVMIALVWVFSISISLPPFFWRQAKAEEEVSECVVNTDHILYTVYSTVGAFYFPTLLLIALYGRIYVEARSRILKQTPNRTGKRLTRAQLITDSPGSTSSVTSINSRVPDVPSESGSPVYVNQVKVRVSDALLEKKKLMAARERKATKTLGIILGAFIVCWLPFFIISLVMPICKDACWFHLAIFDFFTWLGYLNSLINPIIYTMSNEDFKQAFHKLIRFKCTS
The next experiment deals with Cytochrome P450 3A4 (Homo sapiens, UniProt P08684). In words: Inhibition of human Cytochrome P450 3A4. It counts as ADME.
For experiment [9], the target named is T3, 5-hydroxytryptamine receptor 2C (Homo sapiens, UniProt P28335).
T3 sequence (P28335 whole entry): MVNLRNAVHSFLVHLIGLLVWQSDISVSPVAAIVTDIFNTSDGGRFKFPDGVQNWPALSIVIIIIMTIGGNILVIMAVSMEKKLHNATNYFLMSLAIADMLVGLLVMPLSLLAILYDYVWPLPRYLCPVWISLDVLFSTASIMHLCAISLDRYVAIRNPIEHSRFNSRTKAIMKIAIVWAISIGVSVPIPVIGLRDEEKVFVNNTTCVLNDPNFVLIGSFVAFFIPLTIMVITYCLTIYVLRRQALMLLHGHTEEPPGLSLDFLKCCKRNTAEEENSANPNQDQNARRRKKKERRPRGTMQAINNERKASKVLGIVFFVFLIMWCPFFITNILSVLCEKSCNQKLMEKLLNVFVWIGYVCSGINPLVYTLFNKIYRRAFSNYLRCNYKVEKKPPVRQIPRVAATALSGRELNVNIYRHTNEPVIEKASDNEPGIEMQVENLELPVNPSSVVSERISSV
In words: Binding affinity towards cloned human 5-hydroxytryptamine 2C receptor was determined.

In the next experiment the target is Cytochrome P450 2C9 (Homo sapiens, UniProt P11712). In words: Inhibition of human cytochrome P450 isoform 2C9. It counts as ADME.
Cytochrome P450 2C9, sequence (P11712 whole entry, canonical isoform): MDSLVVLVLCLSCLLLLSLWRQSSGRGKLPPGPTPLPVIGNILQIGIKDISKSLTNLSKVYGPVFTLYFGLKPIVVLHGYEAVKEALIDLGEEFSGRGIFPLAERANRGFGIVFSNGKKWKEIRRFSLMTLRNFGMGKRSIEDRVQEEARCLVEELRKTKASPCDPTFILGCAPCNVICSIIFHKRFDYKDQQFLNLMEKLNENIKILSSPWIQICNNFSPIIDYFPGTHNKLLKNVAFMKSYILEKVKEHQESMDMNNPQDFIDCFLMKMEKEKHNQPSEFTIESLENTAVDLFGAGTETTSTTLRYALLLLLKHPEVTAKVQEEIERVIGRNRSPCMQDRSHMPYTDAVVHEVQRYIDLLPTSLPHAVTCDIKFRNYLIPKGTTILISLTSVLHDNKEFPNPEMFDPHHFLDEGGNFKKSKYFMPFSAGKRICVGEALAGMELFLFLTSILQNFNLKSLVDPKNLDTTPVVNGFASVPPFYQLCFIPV
The target in the next experiment is Cytochrome P450 2C19 (Homo sapiens, UniProt P33261). In words: Inhibition of human Cytochrome P450 2C19. Type of experiment: ADME.
Cytochrome P450 2C19, sequence (P33261 whole entry): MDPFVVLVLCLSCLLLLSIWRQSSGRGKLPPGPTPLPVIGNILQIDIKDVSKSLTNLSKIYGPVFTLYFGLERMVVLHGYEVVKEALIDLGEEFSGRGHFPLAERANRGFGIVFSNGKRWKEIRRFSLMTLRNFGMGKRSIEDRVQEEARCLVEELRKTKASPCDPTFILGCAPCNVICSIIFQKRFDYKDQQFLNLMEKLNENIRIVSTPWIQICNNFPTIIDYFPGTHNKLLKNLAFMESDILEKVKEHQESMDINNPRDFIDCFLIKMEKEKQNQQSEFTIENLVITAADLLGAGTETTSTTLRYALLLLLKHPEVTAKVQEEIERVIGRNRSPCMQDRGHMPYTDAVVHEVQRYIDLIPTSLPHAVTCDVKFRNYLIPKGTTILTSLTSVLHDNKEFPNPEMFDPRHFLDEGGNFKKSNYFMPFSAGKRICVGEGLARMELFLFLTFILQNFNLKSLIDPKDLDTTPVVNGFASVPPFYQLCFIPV
For the next experiment, the target named is T4, Cytochrome P450 1A2 (Homo sapiens, UniProt P05177).
T4 sequence (P05177 whole entry): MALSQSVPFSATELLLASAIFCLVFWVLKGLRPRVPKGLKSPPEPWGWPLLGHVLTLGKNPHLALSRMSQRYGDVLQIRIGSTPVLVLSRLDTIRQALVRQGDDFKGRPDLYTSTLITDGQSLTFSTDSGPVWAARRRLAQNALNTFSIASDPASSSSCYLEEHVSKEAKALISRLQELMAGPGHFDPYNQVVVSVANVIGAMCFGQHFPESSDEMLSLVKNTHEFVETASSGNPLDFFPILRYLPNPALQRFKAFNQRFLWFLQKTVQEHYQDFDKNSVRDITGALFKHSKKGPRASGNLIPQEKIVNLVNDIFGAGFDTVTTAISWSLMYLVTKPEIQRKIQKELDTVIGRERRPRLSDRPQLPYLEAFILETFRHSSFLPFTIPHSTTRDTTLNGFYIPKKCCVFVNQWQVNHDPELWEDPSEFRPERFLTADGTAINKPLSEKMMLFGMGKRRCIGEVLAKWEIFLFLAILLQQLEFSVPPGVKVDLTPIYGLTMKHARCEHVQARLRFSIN
Nature of the experiment: Inhibition of human Cytochrome P450 1A2. It counts as ADME.

Experiment [10] addresses T5, 5-hydroxytryptamine receptor 1F (Homo sapiens, UniProt P30939).
T5 sequence (P30939 whole entry): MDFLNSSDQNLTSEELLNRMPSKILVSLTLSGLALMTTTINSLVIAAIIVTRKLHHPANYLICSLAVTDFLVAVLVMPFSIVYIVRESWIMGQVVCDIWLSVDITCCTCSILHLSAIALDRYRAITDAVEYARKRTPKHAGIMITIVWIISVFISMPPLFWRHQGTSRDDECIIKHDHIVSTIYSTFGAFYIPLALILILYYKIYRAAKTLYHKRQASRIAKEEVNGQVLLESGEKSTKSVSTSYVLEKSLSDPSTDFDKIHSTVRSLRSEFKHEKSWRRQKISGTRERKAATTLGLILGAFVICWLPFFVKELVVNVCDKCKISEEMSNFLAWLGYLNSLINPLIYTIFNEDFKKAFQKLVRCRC
Nature of the experiment: Binding affinity towards cloned human 5-hydroxytryptamine 1F receptor was determined.

Experiment [11] has as its target 5-hydroxytryptamine receptor 1E (Homo sapiens, UniProt P28566). In words: Binding affinity towards cloned human 5-hydroxytryptamine 1E receptor was determined.

5-hydroxytryptamine receptor 2A, sequence (P28223 whole entry): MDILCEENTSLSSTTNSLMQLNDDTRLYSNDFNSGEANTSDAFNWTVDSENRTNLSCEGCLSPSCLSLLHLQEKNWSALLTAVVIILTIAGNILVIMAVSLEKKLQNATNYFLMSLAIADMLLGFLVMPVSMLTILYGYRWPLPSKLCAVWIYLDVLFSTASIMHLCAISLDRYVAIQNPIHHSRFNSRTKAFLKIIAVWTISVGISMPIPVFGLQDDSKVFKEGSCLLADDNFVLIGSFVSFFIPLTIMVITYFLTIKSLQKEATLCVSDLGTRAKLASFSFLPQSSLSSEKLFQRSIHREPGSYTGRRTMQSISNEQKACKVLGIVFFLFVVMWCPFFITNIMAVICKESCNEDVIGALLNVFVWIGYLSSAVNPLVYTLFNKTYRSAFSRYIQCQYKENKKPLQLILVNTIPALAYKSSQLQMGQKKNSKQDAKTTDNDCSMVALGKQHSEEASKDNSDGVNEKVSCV
5-hydroxytryptamine receptor 2B, sequence (P41595 whole entry): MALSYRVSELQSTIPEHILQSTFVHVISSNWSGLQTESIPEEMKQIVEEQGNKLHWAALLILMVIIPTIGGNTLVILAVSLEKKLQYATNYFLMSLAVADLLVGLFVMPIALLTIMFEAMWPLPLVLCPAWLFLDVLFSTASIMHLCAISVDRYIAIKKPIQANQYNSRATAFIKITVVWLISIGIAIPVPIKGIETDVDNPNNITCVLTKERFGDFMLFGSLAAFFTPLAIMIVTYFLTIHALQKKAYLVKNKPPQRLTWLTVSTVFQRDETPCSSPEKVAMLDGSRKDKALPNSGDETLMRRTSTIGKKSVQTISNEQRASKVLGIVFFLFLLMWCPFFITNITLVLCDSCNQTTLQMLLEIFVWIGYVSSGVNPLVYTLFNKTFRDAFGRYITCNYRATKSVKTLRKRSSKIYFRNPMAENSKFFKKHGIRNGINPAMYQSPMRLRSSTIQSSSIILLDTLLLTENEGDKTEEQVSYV
5-hydroxytryptamine receptor 1E, sequence (P28566 whole entry): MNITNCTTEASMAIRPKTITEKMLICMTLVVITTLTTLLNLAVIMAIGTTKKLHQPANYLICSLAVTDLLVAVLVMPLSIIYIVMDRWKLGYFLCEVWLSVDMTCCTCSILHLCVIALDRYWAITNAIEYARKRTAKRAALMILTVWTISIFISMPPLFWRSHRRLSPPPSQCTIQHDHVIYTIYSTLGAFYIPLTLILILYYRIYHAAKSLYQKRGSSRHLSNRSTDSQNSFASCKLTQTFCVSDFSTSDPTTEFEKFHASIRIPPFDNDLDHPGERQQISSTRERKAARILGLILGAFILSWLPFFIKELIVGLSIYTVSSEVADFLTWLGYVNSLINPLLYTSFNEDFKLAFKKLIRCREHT
5-hydroxytryptamine receptor 1D, sequence (P28221 whole entry): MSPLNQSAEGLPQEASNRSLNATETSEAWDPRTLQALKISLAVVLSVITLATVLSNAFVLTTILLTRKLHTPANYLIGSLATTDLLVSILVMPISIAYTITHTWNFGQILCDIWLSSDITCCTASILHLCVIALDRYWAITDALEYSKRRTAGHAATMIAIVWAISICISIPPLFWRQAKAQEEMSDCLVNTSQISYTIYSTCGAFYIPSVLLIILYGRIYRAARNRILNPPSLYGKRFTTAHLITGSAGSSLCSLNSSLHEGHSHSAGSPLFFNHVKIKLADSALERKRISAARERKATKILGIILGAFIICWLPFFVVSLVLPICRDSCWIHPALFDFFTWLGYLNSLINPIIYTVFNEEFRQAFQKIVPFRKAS

In the case of `O=C1c2ccccc2CCCN1CCN1CCC(Oc2ccc(F)cc2)CC1`, the pKi in experiment [1] was 7.50; in experiment [2], 8.35.
Take `O=C1c2ccccc2CCCN1CCN1CCC(n2nnc3ccccc32)CC1`: the values for the pKi in experiment [1] and in experiment [2] were 6.57 and 7.85, respectively.
As to `O=C1c2ccccc2CCCN1CCN1CCC(n2c(=O)oc3ccccc32)CC1`, the negative logarithm of the Ki (pKi) in experiment [1] is 6.01; in experiment [2] it was 7.56.
For `O=C1c2ccccc2CCCN1CCN1CCC(c2c[nH]c3ccccc23)CC1`, the pKi in experiment [1] was 8.77; in experiment [2], 9.39.
On to `O=C1c2ccccc2CCCN1CCN1CCC(Oc2ccc(Cl)cc2)CC1`, for which the pKi in experiment [1] is 7.13; in [2] it was 7.93.
Consider `O=C1c2ccccc2CCCC1CCN1CCC(Oc2ccccc2)CC1` (stereo not given), for which, in experiment [2], the pKi is 7.60.
For the compound `O=C1c2ccccc2CCCN1CCN1CCC(n2c(=O)oc3cc(F)ccc32)CC1`, the results for the pKi in experiment [1] and in experiment [2] were 6.73 and 8.03, respectively.
For the compound `COc1ccccc1C1CCN(CC2CCc3ccccc3C(=O)C2)CC1` (stereo not given), in experiment [2], the negative-log Ki (pKi) is 7.95.
As for `O=C1c2ccccc2CCCN1CCN1CCC(n2ccc3ccccc32)CC1`, the values for the negative-log Ki (pKi) in [1] and in experiment [2] were 7.71 and 8.56, respectively.
`O=C(c1ccc(F)cc1)C1CCN(CCN2CCCc3ccccc3C2=O)CC1`: the figures for the pKi in experiment [1] and in [2] were 7.77 and 8.78, respectively.
For `O=C1c2ccccc2CCCN1CCN1CCC(n2c(O)nc3ccccc32)CC1`, in that order: less than 5.80 and 7.99.
Regarding `O=C1c2ccccc2CCCN1CCN1CCC(n2nnc3cc(F)ccc32)CC1`, the values for the negative-log Ki (pKi) in experiment [1] and in [2] were 7.31 and 8.69, respectively.
`Cc1ccccc1OC1CCN(CCC2CCCc3ccccc3C2=O)CC1` (stereo not given) showed a pKi in experiment [2] of 7.95.
As to `O=C1c2ccccc2CCCN1CCN1CCC(n2c(=O)[nH]c3cc(F)ccc32)CC1`, the pKi was 5.91 at D(4) dopamine receptor; 6.32 in experiment [3]; 5.83 in experiment [4]; 5.62 in experiment [5]; 5.77 at D(3) dopamine receptor; less than 5.30 in experiment [6]. The negative logarithm of the Ki (pKi) in experiment [7] is 6.00; in experiment [8], less than 5.40; in experiment [9], 5.48; in experiment [10], less than 5.00; in experiment [1], 6.52; in [2], 8.65. In experiment [11], this compound had a pKi of less than 5.00. The pIC50 against Cytochrome P450 2D6 is 5.00; on Cytochrome P450 3A4, less than 4.00; at Cytochrome P450 2C9, 4.46; against Cytochrome P450 2C19 it was less than 4.00; at Cytochrome P450 1A2, 4.21.
Consider `O=C1c2ccccc2CCCN1CCN1CCC(Oc2ccccc2)CC1`, for which the pKi is 6.81 in experiment [1] and 7.69 in [2].
Take `Cc1ccc(OC2CCN(CCN3CCCc4ccccc4C3=O)CC2)cc1`: the negative logarithm of the Ki (pKi) in experiment [1] was 7.26; in experiment [2] it was 8.04.
For `O=C1c2ccccc2CCCN1CCN1CCC(n2ccc3cc(F)ccc32)CC1`, in that order: 8.16 and 9.25.
As to `O=C(c1ccc(Cl)cc1)C1CCN(CCN2CCCc3ccccc3C2=O)CC1`, the values for the pKi in experiment [1] and in [2] were 7.11 and 8.60, respectively.
Compound `O=C1CC(CN2CCC(Oc3ccccc3)CC2)CCc2ccccc21` (stereo not given) had a pKi in experiment [2] of 7.73.

In general, pKi refers to the negative decadic logarithm of the Ki, by convention in mol/L. The term pIC50 denotes the negative decadic logarithm of the IC50, by convention in mol/L. Lower therefore signals a large IC50.
